From patent publication US9428536B2, “Immunostimulatory G, U-containing oligoribonucleotides” (Zoetis Belgium SA, priority 2002, dated 2016)

How the values were obtained:
[1] = tested on: wild type murine macrophages; test: Wild type murine macrophages in the presence of IFN-γ, IL-12 p40 ELISA; assay type: cell-based, mouse; conditions: FIG. 6 Panel A, 12 hours, RNA with DOTAP
Description: The following murine cells were isolated and incubated with various RNAs and other known TLR ligands in order to assess species-, cell type-, and signaling pathway-specificity: wild type macrophages in the presence of IFN-γ; MyD88-deficient macrophages in the presence of IFN-γ; J774 (mouse macrophage cell line); and RAW 264.7 (mouse macrophage cell line, e.g., ATCC TIB-71). Murine bone macrophages were generated from wild type or MyD88-deficient C57BL/6 mice by culturing bone marrow cells with 50 ng/ml M-CSF for 5 days. Cells were seeded at 25,000 cells/well and treated with 20 ng/ml IFN-γ for 16 hours. The murine macrophage cell lines RAW and J774 were seeded at 10,000 cells/well.
The following test and control agents were examined: R-848 (2 μg/ml), ODN 1668 (CpG DNA; 5′-[…]-3′; SEQ ID NO:7); LPS (1 μg/ml); poly IC (50 μg/ml); Pam3Cys (5 μg/ml); Ionomycin/TPA; the following RNA molecules, each with (“+Lipo”) and without DOTAP (10 μg/200 μl culture well): GUGUUUAC alone (RNA1); GUAGGCAC alone (RNA2); GUGUUUAC in combination with GUAGGCAC (RNA1/2); […] (RNA6; SEQ ID NO:8); […] (RNA9; SEQ ID NO:9); and the following DNA molecules, corresponding to RNA1, RNA2, and RNA1/2: GTGTTTAC alone (DNA1); GTAGGCAC alone (DNA2); and GTGTTTAC in combination with GTAGGCAC (DNA1/2). These RNA and DNA oligonucleotides each contained a phosphorothioate linkage between the penultimate and 3′ terminal nucleoside. RNA6 and RNA9 each contained in addition a phosphorothioate linkage between the penultimate and 5′ terminal nucleoside. RNA6 corresponds to a ribosomal RNA stem loop derived from Listeria monocytogenes. RNA9 corresponds to a stem loop derived from human immunodeficiency virus (HIV, an RNA retrovirus). The cells were cultured for 12 hours and supernatants were harvested. Murine IL-12 p40, IL-6, and TNF-α were measured by ELISA using matched antibody pairs from BD-Pharmingen according to the manufacturer's protocol.

[2] = tested on: human PBMC; test: Human PBMC IL-12 p40 secretion, ELISA; assay type: cell-based
Summary of the method: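 Healthy-donor PBMC plated at 3×10^5 cells/well and stimulated 16 h (overnight) with RNA oligonucleotides (e.g. 50 μg/ml, or 10, 3 or 1 μg per 200 μl well), with or without DOTAP (10 μg/well). Secreted IL-12 p40 measured in supernatants by sandwich ELISA.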

CCOCc1nc2c(N)nc3ccccc3c2n1CC(C)(C)O [R-848, 4-amino-α,α-dimethyl-2-ethoxymethyl-1H-imidazo[4,5-c]quinoline-1-ethanol, reference compound]
IL-12 p40 secretion by wild type murine macrophages [1]: significant amounts | IL-12 p40 response of human PBMC (in words) ([2]; Example 1, FIG. 1, 16 hours, RNA 50 μg/ml with and without DOTAP, R-848 2 μg/ml, LPS 1 μg/ml, Pam3Cys 5 μg/ml, poly IC 50 μg/ml): responsive | effect of DOTAP on the amount of IL-12 p40 secreted ([2]; Example 4, FIG. 5, presence versus absence of DOTAP, 16 hour incubation): about the same immunostimultory effect
